US20260048068A1, “PHENYLUREA DERIVATIVES AND THEIR PHARMACEUTICAL USES” (HANGZHOU BIO-SINCERITY PHARMA-TECH CO., LTD., priority 2022, published 2026)

Columns and labels:
histamine H3 receptor = histamine H3 receptor (Homo sapiens, UniProt Q9Y5N1); assay: FLPPR assay, antagonistic activity at histamine H3 receptor; assay type: cell-based; conditions: for inhibition at 0.005 µM: 5 nM compound, read-out: % Inh-AVERAGE @ 5 nM; for inhibition at 0.05 µM: 50 nM compound, read-out: % Inh-AVERAGE @ 50 nM
Procedure: The FLPPR assay (NIH Assay Guidance Manual: HTS Assay Validation-Section 4.3. Analysis (Potency), htpps://www.ncbi.nlm.nih.gov/books/NBK83783) was performed using SUVN-G3031 as the positive control, and 13 target compounds were tested for the antagonistic activity target to histamine H3 receptor.

hERG channel = hERG channel (Homo sapiens, UniProt Q12809); assay: in vitro
Description: In cardiomyocytes, inhibition of the delayed rectifier potassium current (IKr) channel protein encoded by the human Ether-a-go-go Related Gene (hERG) is the most importane mechanism by which drugs lead to prolongation of the QT interval. hERG is characterized by a specific molecular structure, which allows it to be inhibited by different structures, leading to severe arrhythmias. Statistically, 25-40% of lead compounds show varying degrees of hERG-related toxicity. early evaluation of the effects of compounds on hERG is crucial in the drug development process. The inhibition rate of compounds on hERG channels is examined by manual membrane clamp technique on HEK293 cell line whichi stably ecpressing hERG ion channels.

CCI model rats = assay: Chronic constriction injury (CCI) neuropathic pain model, mechanical withdrawal threshold; assay type: in vivo; conditions: CCI SD rats; for Mechanical pain (withdrawal) threshold vs model group: single dose, 0.5-6 h
Description: Exposing the sciatic nerve on male SD rats' (180-200 g) right hind leg, in the anterior segment where the sciatic nerve is about to bifurcate, use sterile chromic gut thread (No. 4, 0.15 mm in diameter) to ligate 4 loops loosely, with each loop 1-2 mm apart, and suture the muscle and skin to establish the chronic constriction injury (CCI) model. In the sham-operated group, only the sciatic nerve is exposed without ligation, and the muscle and skin are sutured. The mechanical withdrawal threshold is detected by electronic analgesia meter (IITC-2391) on the 7th day for 2 consecutive days.
The CCI model rats with stabilized mechanical withdrawal thresholds were randomly divided into three groups, named model group (model), pregabalin group (Pre, 30 mg/kg), BIOS-A-3 compound group (1 mg/kg), and were administered at 1 mL/100 g by gavage, and the same column of saline was gavaged in Sham and model group. The basic value was determined before drug administration, and the mechanical withdrawal thresholds were detected at 0.5 h, 1 h, 2 h, 4 h and 6 h after a single drug administration, and the p value was calculated by ANOVA with T-test.

[1] = Average inhibition rate (%) on hERG channel
[2] = Inhibition rate on hERG channel

histamine H3 receptor, sequence (Q9Y5N1 whole entry, species assumed): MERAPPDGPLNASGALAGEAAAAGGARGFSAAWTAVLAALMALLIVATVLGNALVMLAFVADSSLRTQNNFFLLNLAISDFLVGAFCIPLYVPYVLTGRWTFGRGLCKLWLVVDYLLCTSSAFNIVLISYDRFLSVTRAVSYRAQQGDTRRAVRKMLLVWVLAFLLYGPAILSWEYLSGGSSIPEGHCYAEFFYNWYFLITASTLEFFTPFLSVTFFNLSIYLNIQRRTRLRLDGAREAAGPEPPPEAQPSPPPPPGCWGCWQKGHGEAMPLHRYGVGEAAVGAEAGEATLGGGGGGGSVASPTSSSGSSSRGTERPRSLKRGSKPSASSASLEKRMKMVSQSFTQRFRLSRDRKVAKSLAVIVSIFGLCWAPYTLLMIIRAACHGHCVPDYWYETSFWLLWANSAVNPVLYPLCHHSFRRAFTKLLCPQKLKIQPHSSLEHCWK
hERG channel, sequence (Q12809 whole entry): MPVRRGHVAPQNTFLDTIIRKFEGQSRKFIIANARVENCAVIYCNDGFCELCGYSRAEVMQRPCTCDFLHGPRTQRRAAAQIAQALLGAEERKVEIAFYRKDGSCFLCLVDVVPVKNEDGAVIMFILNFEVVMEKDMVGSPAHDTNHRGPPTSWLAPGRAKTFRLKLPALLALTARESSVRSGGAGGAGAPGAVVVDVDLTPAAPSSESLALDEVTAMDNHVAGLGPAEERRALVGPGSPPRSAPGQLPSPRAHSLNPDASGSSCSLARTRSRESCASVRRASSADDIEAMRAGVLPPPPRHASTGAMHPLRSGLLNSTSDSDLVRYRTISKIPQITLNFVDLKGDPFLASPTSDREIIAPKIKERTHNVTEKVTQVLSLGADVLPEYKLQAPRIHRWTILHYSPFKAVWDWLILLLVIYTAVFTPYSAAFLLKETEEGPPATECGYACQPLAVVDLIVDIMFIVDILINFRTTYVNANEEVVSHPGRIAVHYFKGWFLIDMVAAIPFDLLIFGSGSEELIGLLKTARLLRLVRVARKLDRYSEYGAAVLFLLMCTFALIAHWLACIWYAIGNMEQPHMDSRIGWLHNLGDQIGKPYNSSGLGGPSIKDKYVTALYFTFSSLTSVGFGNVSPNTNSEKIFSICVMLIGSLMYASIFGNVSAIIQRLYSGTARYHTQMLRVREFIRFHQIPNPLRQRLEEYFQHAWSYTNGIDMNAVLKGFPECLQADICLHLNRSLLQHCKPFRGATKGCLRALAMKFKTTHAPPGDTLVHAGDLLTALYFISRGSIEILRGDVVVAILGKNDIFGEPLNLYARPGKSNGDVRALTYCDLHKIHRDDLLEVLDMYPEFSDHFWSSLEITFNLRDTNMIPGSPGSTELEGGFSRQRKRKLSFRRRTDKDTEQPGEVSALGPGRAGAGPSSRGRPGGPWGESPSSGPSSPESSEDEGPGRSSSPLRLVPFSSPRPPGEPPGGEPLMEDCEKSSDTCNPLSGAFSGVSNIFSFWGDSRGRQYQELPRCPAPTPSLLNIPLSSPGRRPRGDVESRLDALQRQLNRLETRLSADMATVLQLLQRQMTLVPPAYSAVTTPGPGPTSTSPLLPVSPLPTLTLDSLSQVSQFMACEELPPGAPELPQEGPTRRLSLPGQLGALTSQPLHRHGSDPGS

Structure (SMILES)	inhibition at 0.005 µM (histamine H3 receptor) [%]	inhibition at 0.05 µM (histamine H3 receptor) [%]	inhibition at 10 µM (hERG channel; [1]) [%]	inhibition at 10 µM (hERG channel; [2]) [%]	Mechanical pain (withdrawal) threshold vs model group (CCI model rats; 30 mg/kg by gavage)	Mechanical pain (withdrawal) threshold vs model group (CCI model rats; 1 mg/kg by gavage)	Acting time compared with pregabalin (CCI model rats; 1 mg/kg vs pregabalin 30 mg/kg)
O=C(NCCN1CCCC1)Nc1ccc(OC2CCN(C3CCC3)CC2)cc1 [BIOS-A-5, 1-(4-((1-cyclobutylpiperidin-4-yl)oxy)phenyl)-3-(2-(pyrrolidin-1-yl)ethyl)urea]	101	99.7	2.64				
O=C(NCCN1CCNCC1)Nc1ccc(OC2CCN(C3CCC3)CC2)cc1 [BIOS-A-14, 1-(4-((1-cyclobutylpiperidin-4-yl)oxy)phenyl)-3-(2-(piperazin-1-yl)ethyl)urea]	100	99.7	-0.62				
O=C(NCCN1CCC(F)(F)CC1)Nc1ccc(OC2CCN(C3CCC3)CC2)cc1 [BIOS-A-7, 1-(4-((1-cyclobutylpiperidin-4-yl)oxy)phenyl)-3-(2-(4,4-difluoropiperidin-1-yl)ethyl)urea]	101	100					
CN1CCCN(CCNC(=O)Nc2ccc(OC3CCN(C4CCC4)CC3)cc2)CC1 [BIOS-A-13, 1-(4-((1-cyclobutylpiperidin-4-yl)oxy)phenyl)-3-(2-(4-methyl-1,4-diazepan-1-yl)ethyl)urea]	101	101	-0.54				
O=C(Nc1ccc(OC2CCN(C3CCC3)CC2)cc1)NC1CCCC1 [BIOS-A-1, 1-(4-((1-cyclobutylpiperidin-4-yl)oxy)phenyl)-3-cyclopentylurea]	77.4	99.7					
CN1CCN(CCNC(=O)Nc2ccc(OC3CCN(C4CCC4)CC3)cc2)CC1 [BIOS-A-10, 1-(4-((1-cyclobutylpiperidin-4-yl)oxy)phenyl)-3-(2-(4-methylpiperazin-1-yl)ethyl)urea]	99.7	101	-2.92	< 5			
O=C(NCCN1CCN(C2CCC2)CC1)Nc1ccc(OC2CCN(C3CCC3)CC2)cc1 [BIOS-A-15, 1-(2-(4-cyclobutylpiperazin-1-yl)ethyl)-3-(4-((1-cyclobutylpiperidin-4-yl)oxy)phenyl)urea]	101	99.9	-0.55				
CC(C)C[C@H](CN)CC(=O)O [Pregabalin, reference compound]					only increased the mechanical sting threshold of CCI rats at 0.5 h and 1 h after administration		
O=C(NCCN1CCSCC1)Nc1ccc(OC2CCN(C3CCC3)CC2)cc1 [BIOS-A-8, 1-(4-((1-cyclobutylpiperidin-4-yl)oxy)phenyl)-3-(2-thiomorpholinoethyl)urea]	100	100					
O=C(NCCN1CCC(O)CC1)Nc1ccc(OC2CCN(C3CCC3)CC2)cc1 [BIOS-A-9, 1-(4-((1-cyclobutylpiperidin-4-yl)oxy)phenyl)-3-(2-(4-hydroxypiperidin-1-yl)ethyl)urea]	101	101					
O=C(NCCN1CCCCC1)Nc1ccc(OC2CCN(C3CCC3)CC2)cc1 [BIOS-A-4, 1-(4-((1-cyclobutylpiperidin-4-yl)oxy)phenyl)-3-(2-(piperidin-1-yl)ethyl)urea]	102	98.6	0.96				
CC(C)N1CCN(CCNC(=O)Nc2ccc(OC3CCN(C4CCC4)CC3)cc2)CC1 [BIOS-A-11, 1-(4-((1-cyclobutylpiperidin-4-yl)oxy)phenyl)-3-(2-(4-isopropylpiperazin-1-yl)ethyl)urea]	100	100	-1.22	< 5			
C[C@@H]1CCCN1CCNC(=O)Nc1ccc(OC2CCN(C3CCC3)CC2)cc1 [BIOS-A-6, (R)-1-(4-((1-cyclobutylpiperidin-4-yl)oxy)phenyl)-3-(2-(2-methylpyrrolidin-1-yl)ethyl)urea]	81.3	101					
O=C(NCCN1CCOCC1)Nc1ccc(OC2CCN(C3CCC3)CC2)cc1 [BIOS-A-3, 1-(4-((1-cyclobutylpiperidin-4-yl)oxy)phenyl)-3-(2-morpholinoethyl)urea]	95.6	100	1.56			significantly increased the mechanical tingling threshold of CCI model rats	had a longer acting time
